Read-outs that look alike come from different tables or passages of the source.

Broadly, the EC50 is the concentration giving half of the maximal effect.

In one experiment the target is T1, F508del/F508del CFTR (Homo sapiens, UniProt P13569, DEL508-508).
T1 construct: cells isolated from CF patients with the homozygous mutation; endogenous in cells; host or cells: primary human bronchial epithelial (hBE) cells from CF patients homozygous for F508del
Kind of experiment: Trans-Epithelial Current Clamp (TECC) assay using primary human bronchial epithelial cells. Type of experiment: cell-based. To be noted: for Emax (% Dual): maximum percent activity relative to positive control (co-corrector 0.15 μM + potentiator 0.45 μM = 100%), primary hBE cells F508del/F508del; for EC50: primary hBE cells homozygous F508del/F508del, test C2 corrector with co-corrector and potentiator, 18-24 hours at 37° C., equivalent CFTR current (IEQ)/AUC. The method in brief:
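F508del/F508del primary hBE cells grown 35 days at air-liquid interface were treated basolaterally with C2 correctors plus fixed co-corrector and potentiator for 18-24 h at 37° C. TECC-24 current clamp at 36.5° C in HEPES-buffered F-12 Coon's, pH 7.4; equivalent current IEQ=VT/RT, plus AUC between forskolin peak and bumetanide.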

A further experiment deals with T2, F508delCFTR (Homo sapiens, UniProt P13569, DEL508-508).
T2 construct: expressed in transfected cells; host or cells: CFBE41o- human lung-derived epithelial cell line, doxycycline-inducible expression
Kind of experiment: Cell Surface Expression-Horse Radish Peroxidase (CSE-HRP) assay in CFBE41o-F508delCFTR-HRP cells. The class given is cell-based. To be noted: for EC50: CFBE41o-F508delCFTR-HRP cells, 18-24 hours at 33° C., luminescence. Summed up:
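CFBE41o- cells expressing F508delCFTR with HRP in the fourth exofacial loop were doxycycline-induced (0.5 μg/mL) for 68–72 h, then exposed to correctors for 18–24 h at 33 °C, with or without 2 μM co-corrector. Surface HRP was read by luminol luminescence, and % activity was normalized to the on-plate positive control; EC50 came from a variable-slope sigmoidal fit (8 points, 3-fold dilution, 20 or 30 μM top).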

[1] abbreviates: with co-corrector (2 μM), read-out: EC50 (with co-corrector).
Setting [2] is: without co-corrector, read-out: EC50 (without co-corrector).

T2 sequence (P13569 with tags, fused parts or gaps DEL508-508): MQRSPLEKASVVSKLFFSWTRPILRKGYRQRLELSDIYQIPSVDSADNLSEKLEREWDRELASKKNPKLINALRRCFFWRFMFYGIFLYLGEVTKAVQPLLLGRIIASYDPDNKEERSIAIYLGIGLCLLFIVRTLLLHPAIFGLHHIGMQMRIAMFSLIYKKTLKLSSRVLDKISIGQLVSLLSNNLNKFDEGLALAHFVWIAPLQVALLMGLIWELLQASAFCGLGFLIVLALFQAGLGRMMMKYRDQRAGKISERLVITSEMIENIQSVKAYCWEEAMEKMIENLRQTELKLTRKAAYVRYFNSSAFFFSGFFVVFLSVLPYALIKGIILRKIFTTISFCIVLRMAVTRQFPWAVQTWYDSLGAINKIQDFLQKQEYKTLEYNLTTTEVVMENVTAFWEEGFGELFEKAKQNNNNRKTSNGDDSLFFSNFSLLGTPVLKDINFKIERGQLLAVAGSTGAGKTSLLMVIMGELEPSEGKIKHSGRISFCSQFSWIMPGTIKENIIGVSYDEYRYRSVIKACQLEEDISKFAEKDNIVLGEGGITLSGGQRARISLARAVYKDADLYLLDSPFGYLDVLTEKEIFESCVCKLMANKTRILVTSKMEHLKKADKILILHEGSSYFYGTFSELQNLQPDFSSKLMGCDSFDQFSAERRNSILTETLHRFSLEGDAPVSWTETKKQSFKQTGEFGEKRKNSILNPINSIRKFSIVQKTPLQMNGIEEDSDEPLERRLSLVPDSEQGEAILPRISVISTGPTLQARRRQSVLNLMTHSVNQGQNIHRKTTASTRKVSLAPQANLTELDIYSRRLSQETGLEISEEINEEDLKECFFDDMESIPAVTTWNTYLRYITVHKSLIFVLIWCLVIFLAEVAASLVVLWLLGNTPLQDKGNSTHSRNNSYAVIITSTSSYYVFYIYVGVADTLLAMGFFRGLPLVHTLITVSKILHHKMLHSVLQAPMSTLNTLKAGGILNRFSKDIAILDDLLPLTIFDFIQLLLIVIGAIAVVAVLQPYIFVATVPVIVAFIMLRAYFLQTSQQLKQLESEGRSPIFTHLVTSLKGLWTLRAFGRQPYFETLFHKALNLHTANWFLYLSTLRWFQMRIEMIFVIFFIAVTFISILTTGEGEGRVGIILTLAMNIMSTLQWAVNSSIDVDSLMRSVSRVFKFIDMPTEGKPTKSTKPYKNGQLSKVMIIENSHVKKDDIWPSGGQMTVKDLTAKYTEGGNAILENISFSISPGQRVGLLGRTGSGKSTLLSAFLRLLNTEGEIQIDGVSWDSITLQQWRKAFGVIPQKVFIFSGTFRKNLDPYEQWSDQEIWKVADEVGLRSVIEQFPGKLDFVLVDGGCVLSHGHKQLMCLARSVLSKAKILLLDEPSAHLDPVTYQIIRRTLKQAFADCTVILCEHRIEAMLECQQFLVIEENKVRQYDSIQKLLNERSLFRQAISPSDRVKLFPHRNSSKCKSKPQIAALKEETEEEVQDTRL
T1 sequence (P13569 with tags, fused parts or gaps DEL508-508): as above

Consider `COc1ccc(C)cc1[C@@]1(C(=O)NS(=O)(=O)c2cccc3nc(C)ccc23)C[C@H]1c1cccc(C(F)(F)F)c1` (single isomer, unassigned) [Example 24], for which the “Emax (% Dual)” value on F508del/F508del CFTR is given as 286 % Dual. Moreover, the EC50 on F508del/F508del CFTR was 2 nM; at F508delCFTR (setting [1]) it was 201 nM; at F508delCFTR (setting [2]) it was 583 nM.

Turning to `COc1ccc(C)cc1[C@@]1(C(=O)NS(=O)(=O)c2cccc3nc(C)ccc23)C[C@H]1c1ccc(C)cc1` (racemic) [Example 4, rac-(1r,2s)-1-(2-methoxy-5-methylphenyl)-2-(4-methylphenyl)-N-(2-methylquinoline-5-sulfonyl)cyclopropane-1-carboxamide], the “Emax (% Dual)” value on F508del/F508del CFTR was determined as 417 % Dual. The 50% effective concentration (EC50) amounted to 1.5 nM on F508del/F508del CFTR, 421 nM at F508delCFTR (setting [1]) and 489 nM at F508delCFTR (setting [2]). Also, the “Maximum % activity (without co-corrector)” value at F508delCFTR (without co-corrector, normalized to on-plate positive control corrector (2 μM)) is 944%.

Source of the values: patent US20240043386A1, “Modulators of the Cystic Fibrosis Transmembrane Conductance Regulator Protein and Methods of Use” (AbbVie Global Enterprises Ltd., priority 2021, published 2024).
